This data set has as its system K562 human tumor cells. The data set can be described thus: Natural killer cell cytotoxicity of human PBMC against K562 tumor cells in vitro. In kind it is cell-based. As to the method: Prior to conducting the above experiment, we examined the dose dependent effects of d-FEN on the ability of human PBMC obtained from five healthy volunteers (person Caucasians) to kill human K562 tumor cells in vitro. The potential cytotoxic enhancing effects of d-FEN and d-norFEN were compared using PBMC from two of the five human donors.
For assessment of immunological parameters of human PBMC, venous blood as aseptically drawn into sterile 10 ml tubes containing 20 U/ml preservative free heparin, diluted with an equal volume of Hank's Balanced Salt Solution (HBSS), layered over Lymphocyte Separation Medium (LSM, Bionetics, Kensington, Md.) and centrifuged at 1,000 ×g for 30 min. After centrifugation, the mononuclear cell layer was recovered from the interface and washed twice in HBSS and enumerated.
The K562 cell line originated from a chronic myelogenous leukemia patient and was obtained from Dr. T. Ellis (Director, Cellular Immunology Laboratory, LUMC). The K562 cells used for assessment of cytotoxic activity were maintained in long term cultures using Corning 25 cm^2 tissue culture flasks (Corning Glass Works, Corning, N.Y.) containing RPMI 1640 (Gibco Laboratories, Grand Island, N.Y.) supplemented with low LPS 10% fetal bovine serum (FBS; Gibco), 100 units/ml penicillin, 100 μg/ml streptomycin (Whittaker M. A. Bioproducts, Walkersville, Md.), 0.1 mM non-essential amino acids, and 2 mM L-glutamine (Gibco). This medium was used throughout, except where noted, and is referred to as "culture medium". The K562 cells were grown in suspension and were passaged three times per week by transfer of 10^6 K562 cells into a flask containing 10 ml of fresh culture medium. The K562 cells injected into the SCID mice were supplemented with fresh medium at a 1:3 dilution the day before administration. They were washed once in medium, pelleted by centrifugation at 500 ×g for 10 min., then resuspended at a concentration of 5×10^7. Subsequently, 0.2 ml (1×10^7 cells) of the cell suspension was injected (i.p.) into each SCID mouse. The K562 cells were administered to the animals four days after the injection of PBMC.
The K562 tumor cell lines maintained in vitro were washed once in culture medium, pelleted by centrifugation at 500×g for 10 min and resuspended in approximately 0.1 ml of culture medium. Subsequently, 100 μCi of [^51 Cr] (New England Nuclear, Boston, Mass.) was added to 1×10^5 cells in a final volume of 0.2 ml. The cells were incubated at 37° C. with 5% CO2 for 1 h with agitation every 10 min, then washed 3 times in HBSS, resuspended to 5×10^4 cells/ml in culture medium and 0.1 ml (5×10^3) aliquoted to each well of a 96 well round bottom assay plate (Corning Glass Works, Corning, N.Y.). Radiolabelled K562 was cultured for 4 h with lymphocytes at effector to target ratios ranging from 50:1 to 6:1. Following 4 h of culture the media was removed using a Skatron harvesting press (Skatron Inc., Sterling, Va.) and associated radioactivity determined. Maximum release was obtained by adding 0.05% Nonidet P-40 (Sigma Chemical Co., St. Louis, Mo.).
The results have been expressed as % cytotoxicity and calculated by the formula: % cytotoxicity=[(experimental DPM-minimum DPM)/(maximum DPM-minimum DPM)]×100.
All experimental means were calculated from triplicate values. Lytic units (LU) were calculated using a computer program written by David Coggins, FCRC, Frederick, Md.

This note sets out measurements from patent publication US5955508A, “Method for the enhancement of lymphocyte activity against opportunistic microbial pathogens” (priority 1996, dated 1999).

As to `CCN[C@@H](C)Cc1cccc(C(F)(F)F)c1` [d-FEN], the “Percent Change in Cytotoxicity (Mean ± SEM)” value (“Percent Change … (Mean ± SEM)” for short) (0.25 ng/ml) is listed as 19 ± 2%; the “Percent Change … (Mean ± SEM)” value (0.50 ng/ml) came to 28 ± 4%; the “Percent Change … (Mean ± SEM)” value (1.00 ng/ml) was determined as 16 ± 3%; the “Percent Change … (Mean ± SEM)” value (4.00 ng/ml) came out at 11 ± 5%; the “Percent Change … (Mean ± SEM)” value (20.00 ng/ml) is on record as -33 ± 5%; the “Percent Change … (Mean ± SEM)” value (50.00 ng/ml) was -53 ± 6%. Also, the “Percent Change … (Mean ± SEM)” value (100.00 ng/ml) is recorded as -87 ± 2%. Also, the “percent increase in cytotoxicity” value runs as follows: (0.25 ng/ml, DONOR #1) 22%; (0.25 ng/ml, DONOR #2) 19%; (0.50 ng/ml, DONOR #1) 36%; (0.50 ng/ml, DONOR #2) 21%; (1.00 ng/ml, DONOR #1) 23%; (1.00 ng/ml, DONOR #2) 17%. For the same compound, under “PBMC of five healthy volunteers, p<0.001”, the “dose dependent effect on cytotoxicity in words” value was “low doses of d-FEN enhanced whereas higher doses reduced cytotoxicity”. Moreover, the “d-FEN vs d-norFEN effect on cytotoxicity in words” value (PBMC of two donors) is “virtually identical effects”. Under “conclusion”, the “effect on capacity of human NK cells to kill K562, in words” value is “augments the capacity of human NK cells to kill the human tumor cell line, K562”.
